This note sets out measurements from article PMC7497641, “Neurotropic activity and safety of methylene-cycloalkylacetate (MCA) derivative 3-(3-allyl-2-methylenecyclohexyl) propanoic acid” (ACS Chemical Neuroscience, 2020).

The structures appear in SMILES notation. pEC50, pIC50: −log10 of the molar value.

In test [1] the target is T1, Adrenergic Receptor β1 (ADRB1) (Homo sapiens, UniProt P08588).
T1 construct: host or cells: cAMP Hunter cell lines
The test is described as follows: SAFETYscan GPCR cAMP. In kind it is cell-based. To be noted: read-out: RC50 (the source's name).

The target in test [2] is Muscarinic acetylcholine Receptor M1 (CHRM1) (Homo sapiens, UniProt P11229). The test is described as follows: cell-based. The settings on record: Calcium Flux, read-out: RC50 (the source's name). For orientation: Calcium assays in cells follow changes in intracellular calcium, usually with a dye or a luminescent sensor.
Test [3] concerns the target 5-Hydroxy tryptamine (Serotonin) Receptor 2A (HTR2A) (Homo sapiens, UniProt P28223). The test is described as follows: SAFETYscan GPCR Calcium Flux. The test is classed as cell-based.
Test [4] deals with T2, Opioid Receptor Mu 1 (OPRM1) (Homo sapiens, UniProt P35372).
T2 construct: host or cells: cAMP Hunter cell lines
The test is described as follows: cell-based. To be noted: cAMP, read-out: RC50 (the source's name).

The target of test [5] is Kv7.1/KCNE Potassium voltage-gated channel (KvLQT1/minK) (Homo sapiens, UniProt P51787). The test is described as follows: SAFETYscan Ion channel assay. The test is classed as cell-based. To be noted: read-out: RC50 (the source's name).
Test [6] deals with T3, Lymphocyte Cell-Specific Protein-Tyrosine Kinase (Src family) (LCK) (Homo sapiens, UniProt P06239).
T3 construct: host or cells: E. coli BL21-derived host (T7 phage) or HEK-293
The test is described as follows: SAFETYscan KINOMEscan binding assay. The settings on record: Inhibitor.

For test [7], the target named is T4, Vascular endothelial growth factor receptor 2 (KDR tyrosine kinase) (VEGFR2) (Homo sapiens, UniProt P35968).
T4 construct: host or cells: E. coli BL21-derived host (T7 phage) or HEK-293
The test is described as follows: SAFETYscan KINOMEscan binding assay. To be noted: Inhibitor.

In test [8] the target is Nuclear Hormone Glucocorticoid Receptor (GR) (Homo sapiens, UniProt P04150). The test is described as follows: SAFETYscan Nuclear Hormone Receptor assay. The settings on record: read-out: RC50 (the source's name). The test is classed as cell-based.
The target of test [9] is T5, Monoamine oxidase type A (MAOA) (Homo sapiens, UniProt P21397).
T5 construct: purchased Sigma-Aldrich-Merck
The test is described as follows: SAFETYscan Enzymatic assay. In kind it is biochemical. To be noted: Inhibitor.

The subject of test [10] is calcineurin phosphatase. The test is described as follows: PhosphoSens CSox based phosphatase assay. In kind it is biochemical. To be noted: 5 μM HU-MCA-13. The source says:
The initial focus was to measure the modulatory activity in vitro of MCA-13 on protein kinases which were reported to be involved in induction of neurite outgrowth.[18],[43] To do this, we took advantage of a powerful method to measure the activity of recombinant protein kinases using a homogeneous and continuous (kinetic) format, where the level of chelation-enhanced fluorescence (CHEF) is directly proportional to the amount of phosphorylated, real-time sensors consisting of sulfonamido-oxine (Sox) chromophore linked to a peptide or protein substrates of selective kinases.[44] […]
Kinase activity was measured continuously using the PhosphoSens®technology (AssayQuant Technologies Inc., Marlborough, MA) according to the manufacturers’ recommendations (http://www.assayquant.com/) . This one-step homogeneous assay use s chelation-enh anced fluorescence via optimized substrate sensors unique for each kinase, containing the unnatural fluorogenic amino-acid Sox. […]
Protein kinase activity was determined in 54 mM HEPES, pH 7.5 1 mM ATP 1.2 mM DTT (none in ASK1) 0.012% Brij-35 1% glycerol 0.2 mg/ml BSA 0.52 mM EGTA (none in assays of CAMK2α, PKCε, PKCι, Calcineurin A/B) 140 µM phosphatidylserine/3.8 µM diacylglycerol (PKCε, PKCι only) 5 ng/µl calmodulin/0.4 mM CaCl2 (CAMK2α, Calcineurin A/B only) 10 mM […]

The mark [11] stands for this setting: 10 μM, read-out: MCA-13 Max. Responce.
Where [12] appears, read: read-out: RC50 (the source's name).

T5 sequence (P21397 whole entry): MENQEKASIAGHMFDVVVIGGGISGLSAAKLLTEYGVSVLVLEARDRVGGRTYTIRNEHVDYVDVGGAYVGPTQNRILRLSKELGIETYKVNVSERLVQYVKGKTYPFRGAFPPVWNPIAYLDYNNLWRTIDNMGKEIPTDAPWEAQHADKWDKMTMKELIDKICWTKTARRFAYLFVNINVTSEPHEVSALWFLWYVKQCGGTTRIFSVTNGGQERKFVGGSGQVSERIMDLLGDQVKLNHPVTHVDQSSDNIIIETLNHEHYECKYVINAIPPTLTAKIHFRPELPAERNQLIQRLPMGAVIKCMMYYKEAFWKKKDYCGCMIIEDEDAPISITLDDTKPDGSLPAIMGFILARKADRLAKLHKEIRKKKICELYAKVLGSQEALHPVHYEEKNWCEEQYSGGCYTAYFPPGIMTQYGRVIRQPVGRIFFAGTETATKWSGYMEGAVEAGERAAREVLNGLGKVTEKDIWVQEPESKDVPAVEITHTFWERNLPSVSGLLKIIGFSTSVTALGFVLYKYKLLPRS
T3 sequence (P06239 whole entry): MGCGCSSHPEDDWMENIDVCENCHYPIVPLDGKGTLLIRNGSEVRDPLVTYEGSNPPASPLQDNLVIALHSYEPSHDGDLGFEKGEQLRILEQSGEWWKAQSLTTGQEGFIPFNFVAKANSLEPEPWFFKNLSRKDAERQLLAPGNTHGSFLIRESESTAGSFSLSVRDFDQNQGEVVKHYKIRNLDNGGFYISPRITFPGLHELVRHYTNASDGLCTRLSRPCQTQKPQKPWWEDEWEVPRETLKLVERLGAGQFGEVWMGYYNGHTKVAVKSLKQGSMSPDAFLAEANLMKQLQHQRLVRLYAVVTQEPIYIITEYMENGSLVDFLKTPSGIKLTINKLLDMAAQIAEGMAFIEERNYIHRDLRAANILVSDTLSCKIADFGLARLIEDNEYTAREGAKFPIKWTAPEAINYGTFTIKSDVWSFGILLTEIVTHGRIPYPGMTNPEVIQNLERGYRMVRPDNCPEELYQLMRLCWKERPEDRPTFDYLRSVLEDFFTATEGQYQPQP
Chain of Muscarinic acetylcholine Receptor M1 (CHRM1) (P11229 whole entry): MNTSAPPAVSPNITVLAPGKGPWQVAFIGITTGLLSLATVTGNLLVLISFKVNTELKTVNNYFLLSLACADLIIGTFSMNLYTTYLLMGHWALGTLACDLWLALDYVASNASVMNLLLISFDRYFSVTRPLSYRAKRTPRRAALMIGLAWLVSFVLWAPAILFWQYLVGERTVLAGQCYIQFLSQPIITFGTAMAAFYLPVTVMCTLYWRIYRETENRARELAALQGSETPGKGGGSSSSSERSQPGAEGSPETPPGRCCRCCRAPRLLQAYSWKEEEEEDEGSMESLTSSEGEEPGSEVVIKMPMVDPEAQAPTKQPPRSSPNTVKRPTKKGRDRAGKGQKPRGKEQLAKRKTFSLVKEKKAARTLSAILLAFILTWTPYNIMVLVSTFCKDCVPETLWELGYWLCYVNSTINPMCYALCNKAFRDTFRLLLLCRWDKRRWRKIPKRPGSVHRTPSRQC
T2 sequence (P35372 whole entry): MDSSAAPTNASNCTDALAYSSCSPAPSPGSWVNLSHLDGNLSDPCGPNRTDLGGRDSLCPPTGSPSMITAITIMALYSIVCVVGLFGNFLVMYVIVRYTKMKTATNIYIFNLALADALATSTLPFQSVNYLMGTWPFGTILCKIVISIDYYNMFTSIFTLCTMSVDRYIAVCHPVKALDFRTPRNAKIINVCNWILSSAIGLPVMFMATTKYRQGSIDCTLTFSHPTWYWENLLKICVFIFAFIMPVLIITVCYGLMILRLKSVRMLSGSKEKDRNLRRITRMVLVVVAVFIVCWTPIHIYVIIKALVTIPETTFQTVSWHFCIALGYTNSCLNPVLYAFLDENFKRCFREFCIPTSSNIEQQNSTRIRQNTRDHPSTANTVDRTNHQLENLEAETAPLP
T1 sequence (P08588 whole entry): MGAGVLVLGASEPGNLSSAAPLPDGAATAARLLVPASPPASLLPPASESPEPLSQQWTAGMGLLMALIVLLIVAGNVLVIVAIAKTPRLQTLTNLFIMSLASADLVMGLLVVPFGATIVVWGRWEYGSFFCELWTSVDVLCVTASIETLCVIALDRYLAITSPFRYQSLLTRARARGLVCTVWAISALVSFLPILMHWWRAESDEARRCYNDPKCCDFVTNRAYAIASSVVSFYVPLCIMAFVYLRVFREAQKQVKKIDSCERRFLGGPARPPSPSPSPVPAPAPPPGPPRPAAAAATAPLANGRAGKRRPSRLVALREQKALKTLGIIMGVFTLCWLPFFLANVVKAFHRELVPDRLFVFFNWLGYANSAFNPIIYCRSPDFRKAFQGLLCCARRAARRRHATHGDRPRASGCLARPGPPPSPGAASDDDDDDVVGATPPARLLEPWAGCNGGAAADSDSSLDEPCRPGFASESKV
Chain of Nuclear Hormone Glucocorticoid Receptor (GR) (P04150 whole entry): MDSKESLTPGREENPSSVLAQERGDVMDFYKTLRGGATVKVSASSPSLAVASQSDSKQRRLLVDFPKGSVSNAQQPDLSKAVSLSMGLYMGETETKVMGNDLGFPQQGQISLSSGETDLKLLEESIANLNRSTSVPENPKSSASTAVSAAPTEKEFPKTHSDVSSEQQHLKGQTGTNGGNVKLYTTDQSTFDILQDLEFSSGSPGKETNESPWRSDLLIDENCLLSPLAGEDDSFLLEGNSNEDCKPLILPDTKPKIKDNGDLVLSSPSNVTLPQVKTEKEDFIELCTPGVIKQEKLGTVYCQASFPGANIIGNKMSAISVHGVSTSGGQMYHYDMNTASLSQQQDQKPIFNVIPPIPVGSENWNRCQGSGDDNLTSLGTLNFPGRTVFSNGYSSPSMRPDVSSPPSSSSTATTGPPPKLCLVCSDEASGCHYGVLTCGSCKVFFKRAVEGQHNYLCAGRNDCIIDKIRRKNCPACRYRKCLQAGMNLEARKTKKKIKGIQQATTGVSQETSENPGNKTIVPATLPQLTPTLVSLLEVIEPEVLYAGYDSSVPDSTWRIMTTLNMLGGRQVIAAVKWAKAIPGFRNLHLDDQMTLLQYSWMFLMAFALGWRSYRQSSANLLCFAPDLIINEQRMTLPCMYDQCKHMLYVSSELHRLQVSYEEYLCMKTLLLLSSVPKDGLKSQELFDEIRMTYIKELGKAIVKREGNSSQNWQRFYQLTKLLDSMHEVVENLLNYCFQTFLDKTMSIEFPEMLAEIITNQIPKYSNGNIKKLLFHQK
T4 sequence (P35968 20-1356): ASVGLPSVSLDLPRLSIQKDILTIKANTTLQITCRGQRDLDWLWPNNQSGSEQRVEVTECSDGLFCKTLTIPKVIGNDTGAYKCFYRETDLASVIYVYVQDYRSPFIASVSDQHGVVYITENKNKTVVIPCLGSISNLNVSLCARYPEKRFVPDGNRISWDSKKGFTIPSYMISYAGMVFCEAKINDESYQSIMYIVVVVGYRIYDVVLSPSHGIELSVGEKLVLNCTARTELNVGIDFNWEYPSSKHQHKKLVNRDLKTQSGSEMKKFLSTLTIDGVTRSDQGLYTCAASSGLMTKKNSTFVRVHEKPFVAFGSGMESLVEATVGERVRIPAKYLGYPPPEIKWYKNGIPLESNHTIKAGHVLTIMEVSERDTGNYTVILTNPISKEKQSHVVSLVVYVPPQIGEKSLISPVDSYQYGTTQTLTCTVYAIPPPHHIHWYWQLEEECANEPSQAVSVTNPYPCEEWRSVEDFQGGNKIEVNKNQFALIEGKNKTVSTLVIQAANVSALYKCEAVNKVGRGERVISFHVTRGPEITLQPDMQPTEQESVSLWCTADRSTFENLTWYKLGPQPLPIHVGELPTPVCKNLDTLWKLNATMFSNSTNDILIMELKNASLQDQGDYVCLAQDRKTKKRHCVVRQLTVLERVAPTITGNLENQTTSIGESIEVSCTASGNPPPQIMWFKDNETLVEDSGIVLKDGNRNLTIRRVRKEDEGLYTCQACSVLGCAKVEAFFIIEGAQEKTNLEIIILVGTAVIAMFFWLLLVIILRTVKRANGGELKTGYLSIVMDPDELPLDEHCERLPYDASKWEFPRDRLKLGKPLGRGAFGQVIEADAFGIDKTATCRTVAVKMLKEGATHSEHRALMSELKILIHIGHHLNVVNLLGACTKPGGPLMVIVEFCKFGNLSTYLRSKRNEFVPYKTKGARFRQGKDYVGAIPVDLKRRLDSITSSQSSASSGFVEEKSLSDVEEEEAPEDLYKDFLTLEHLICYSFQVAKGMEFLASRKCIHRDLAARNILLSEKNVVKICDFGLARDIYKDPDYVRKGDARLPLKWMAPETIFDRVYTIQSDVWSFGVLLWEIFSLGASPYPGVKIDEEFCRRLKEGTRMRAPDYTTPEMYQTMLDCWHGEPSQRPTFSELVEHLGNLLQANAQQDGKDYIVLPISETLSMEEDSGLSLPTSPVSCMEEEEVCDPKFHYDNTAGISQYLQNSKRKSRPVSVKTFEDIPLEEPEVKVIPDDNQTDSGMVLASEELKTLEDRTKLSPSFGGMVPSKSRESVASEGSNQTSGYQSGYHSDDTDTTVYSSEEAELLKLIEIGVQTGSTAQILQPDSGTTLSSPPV
Chain of 5-Hydroxy tryptamine (Serotonin) Receptor 2A (HTR2A) (P28223 whole entry): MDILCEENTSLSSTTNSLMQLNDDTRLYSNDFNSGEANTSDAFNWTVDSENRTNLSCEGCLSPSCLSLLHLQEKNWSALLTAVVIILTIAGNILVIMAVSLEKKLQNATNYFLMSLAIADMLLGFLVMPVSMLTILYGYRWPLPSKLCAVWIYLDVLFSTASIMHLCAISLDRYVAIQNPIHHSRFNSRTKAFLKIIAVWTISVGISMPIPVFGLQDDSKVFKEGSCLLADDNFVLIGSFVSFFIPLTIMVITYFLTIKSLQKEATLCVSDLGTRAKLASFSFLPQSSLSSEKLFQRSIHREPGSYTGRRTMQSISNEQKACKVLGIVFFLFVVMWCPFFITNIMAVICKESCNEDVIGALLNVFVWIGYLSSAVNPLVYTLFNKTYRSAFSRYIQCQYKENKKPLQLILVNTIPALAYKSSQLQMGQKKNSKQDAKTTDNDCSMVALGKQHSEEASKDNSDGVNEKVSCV

Consider `C=CCC1CCCC(CCC(=O)O)C1=C` (stereo not shown) [HU-MCA-13, 3-(3-allyl-2-methylenecyclohexyl)propanoic acid], for which the pEC50 in test [1] (Agonist), in test [2] (Agonist), in test [3], in test [4] (Agonist), in test [5] (Opener) and in test [8] (Agonist) was below 5.00 throughout. The pIC50 in test [1] (Antagonist), in [2] (Antagonist), in [3], in test [4] (Antagonist), in test [5] (Blocker) and in test [6] (setting [12]) was below 5.00 in each case. Further, the pIC50 in [7] (setting [12]), in test [8] (Antagonist) and in [9] (setting [12]) was below 5.00 in each case. For the same compound, the inhibition at 10 µM in test [6] (setting [11]) came to 12.8%; in [7] (setting [11]), 21.7%; in test [9] (setting [11]), 1.86%. Moreover, in test [10], the “effect on phosphatase activity” value is listed as “no effects”.
